# Source: patent US4535079A, “Alkanolaminoxy derivatives of 3,4-dihydro-2H-1,4-benzothiazin-3-one, their production process, and their pharmaceutical use” (Mediolanum Farmaceutici S.R.L., priority 1982, dated 1985)
# Where a name gives a salt, the structure may show the parent alone.
# Key:
# guinea pig = assay: Protection from the lethal effect of aconitine in the guinea pig; type: in vivo; settings: Cavia porcellus, 10 min, intravenous, 10 minutes before aconitine perfusion, read-out: percentage increase in the time of death by aconitine with respect to the control animals; for change in vivo at 0.015 mg/kg: dose 15 μg/kg; for change in vivo at 0.01 mg/kg: dose 10 μg/kg; for change in vivo at 0.025 mg/kg: dose 25 μg/kg; for change in vivo at 0.009 mg/kg: dose 9 μg/kg; for change in vivo at 0.02 mg/kg: dose 20 μg/kg
# Experimental: Protection from the methal effect of aconitine in the guinea pig. For the compounds according to the invention, an evaluation was made of their capacity to antagonise the lethal effect of aconitine in native guinea pigs of both sexes having an average weight of 400±50 g, anesthetized with 10% ethylurethan (1 g/kg i.p.), by making an E.C.G. precardiacal recording. Death was induced by perfusing aconitine through the jugular at a dose of 150 γ/kg/hour (5 ml/hour). The time of commencement of arrhythmia, the time of commencement of fibrillation and the time of death were checked. The product under examination were administered to the jugular vein 10 minutes before commencement of perfusion in doses from 0.01 mg/kg to 10 mg/kg.
# [1] = system: isolated guinea pig trachea; assay: Beta-blocking activity by the isolated guinea pig trachea method; settings: concentration able to inhibit 50% of the response; 37° C., 12 minutes before stimulation
# Experimental: (b) Beta-blocking activity by the isolated guinea pig trachea method
# The series was also tested for beta-blocking activity at the level of the isolated guinea pig trachea, evaluated as antagonism to the effect of isoprenaline.
# A trachea segment was withdrawn from animals weighing 450±50 g, and a spiral of tissue was prepared and then suspended in a 20 ml bath of oxygenated Tyrode containing 10^-7 g/ml of acetylcholine and […] of eserine, the bath being temperature-controlled at 37° C. The recording was made by means of an isotonic pen with maximum amplification,loaded to 0.5 g and constantly cibrated.
# Having determined the sub-maximum concentration of isoprenaline for stimulating the preparation, the test substance was placed in contact with it at different concentrations 12 minutes before stimulation, then evaluating the antagonistic effect.
# [2] = system: beta-adrenergic cardiac receptors (isolated guinea pig atrium); assay: Beta-blocking activity: isolated guinea pig atrium method; settings: concentration inhibiting 25% of the response to isoprenaline, 29° C., 10 minutes before isoprenaline
# Experimental: (a) Beta-blocking activity: isolated guinea pig atrium method
# The compounds under examination were tested on the isolated guinea pig atrium for their capacity to antagonise the positive inotropic and chronotropic effects induced by isoprenaline. The preparations were made up from native guinea pigs weighing 450±50 g and suspended in a 10 ml bath of oxygenated Tyrode maintained at 29° C., the frequency and force of contraction being recorded by means of an isotonic pen loaded with 1.5 g and having an amplification ratio of 1:15. The substance under test was added to the medium in a volume of 0.1 ml 10 minutes before stimulation by isoprenalina administered at the optimum concentration which had been determined on the basis of the reactivity of the preparation.
# [3] = LD50 in the male Wistar rat by intravenous administration; settings: in vivo, i.v.
smiles,measurement,setting,value
CC(C)NCC(O)COc1ccc2c(c1)SCC(=O)N2 (stereo not drawn) [Compound XI],change in vivo at 0.015 mg/kg,guinea pig,21.3%
same,"IC50, antagonism in the response of the isolated guinea pig trachea to isoprenaline",[1],0.76 µg/mL
same,"IC25, positive chronotropic effect with isoprenaline",[2],0.091 µg/mL
same,"IC25, positive inotropic effect with isoprenaline",[2],0.0743 µg/mL
same,LD50,[3],65 mg/kg
CC(C)(C)NCC(O)COc1ccc2c(c1)NC(=O)CS2 (stereo not drawn) [IX],change in vivo at 0.01 mg/kg,guinea pig,25.9%
same,"IC50, antagonism in the response of the isolated guinea pig trachea to isoprenaline",[1],0.568 µg/mL
same,"IC25, positive chronotropic effect with isoprenaline",[2],0.255 µg/mL
same,"IC25, positive inotropic effect with isoprenaline",[2],0.203 µg/mL
same,LD50,[3],75 mg/kg
CCC(C)NCC(O)COc1ccc2c(c1)NC(=O)CS2 (stereo not drawn) [Compound X],change in vivo at 0.025 mg/kg,guinea pig,11.3%
same,"IC50, antagonism in the response of the isolated guinea pig trachea to isoprenaline",[1],0.66 µg/mL
same,"IC25, positive chronotropic effect with isoprenaline",[2],0.803 µg/mL
same,"IC25, positive inotropic effect with isoprenaline",[2],0.67 µg/mL
same,LD50,[3],78 mg/kg
CCC(C)NCC(O)COc1cccc2c1SCC(=O)N2 (stereo not drawn) [XVIII],change in vivo at 0.01 mg/kg,guinea pig,49.2%
same,"IC50, antagonism in the response of the isolated guinea pig trachea to isoprenaline",[1],1.21 µg/mL
same,"IC25, positive chronotropic effect with isoprenaline",[2],0.803 µg/mL
same,"IC25, positive inotropic effect with isoprenaline",[2],0.0705 µg/mL
same,LD50,[3],75 mg/kg
CCC(C)NCC(O)COc1ccc2c(c1)SCC(=O)N2 (stereo not drawn) [XIV],change in vivo at 0.015 mg/kg,guinea pig,20.6%
same,"IC50, antagonism in the response of the isolated guinea pig trachea to isoprenaline",[1],0.25 µg/mL
same,"IC25, positive chronotropic effect with isoprenaline",[2],0.202 µg/mL
same,"IC25, positive inotropic effect with isoprenaline",[2],0.0978 µg/mL
same,LD50,[3],68 mg/kg
CC(C)NCC(O)COc1cccc2c1SCC(=O)N2 (stereo not drawn) [XV],change in vivo at 0.009 mg/kg,guinea pig,48.6%
same,"IC50, antagonism in the response of the isolated guinea pig trachea to isoprenaline",[1],0.123 µg/mL
same,"IC25, positive chronotropic effect with isoprenaline",[2],0.0641 µg/mL
same,"IC25, positive inotropic effect with isoprenaline",[2],0.0587 µg/mL
same,LD50,[3],73 mg/kg
CC(C)CNCC(O)COc1cccc2c1SCC(=O)N2 (stereo not drawn) [XVI],change in vivo at 0.01 mg/kg,guinea pig,32.2%
same,"IC50, antagonism in the response of the isolated guinea pig trachea to isoprenaline",[1],0.112 µg/mL
same,"IC25, positive chronotropic effect with isoprenaline",[2],0.13 µg/mL
same,"IC25, positive inotropic effect with isoprenaline",[2],0.0995 µg/mL
same,LD50,[3],67 mg/kg
CC(C)(C)NCC(O)COc1cccc2c1SCC(=O)N2 (stereo not drawn) [XVII],change in vivo at 0.009 mg/kg,guinea pig,55.4%
same,"IC50, antagonism in the response of the isolated guinea pig trachea to isoprenaline",[1],0.0015 µg/mL
same,"IC25, positive chronotropic effect with isoprenaline",[2],0.000992 µg/mL
same,"IC25, positive inotropic effect with isoprenaline",[2],0.000276 µg/mL
same,LD50,[3],50 mg/kg
"CC(C)(C)NCC(O)COc1ccc2c(c1)SCC(=O)N2 (stereo not drawn) [Compound XIII, 7-(3-tert.butylamino-2-hydroxy)-propoxy-3,4-dihydro-2H-1,4-benzothiazin-3-one]",change in vivo at 0.01 mg/kg,guinea pig,39.7%
same,"IC50, antagonism in the response of the isolated guinea pig trachea to isoprenaline",[1],0.125 µg/mL
same,"IC25, positive chronotropic effect with isoprenaline",[2],0.0703 µg/mL
same,"IC25, positive inotropic effect with isoprenaline",[2],0.0565 µg/mL
same,LD50,[3],60 mg/kg
CC(C)CNCC(O)COc1ccc2c(c1)NC(=O)CS2 (stereo not drawn) [VIII],change in vivo at 0.02 mg/kg,guinea pig,19%
same,"IC50, antagonism in the response of the isolated guinea pig trachea to isoprenaline",[1],1.14 µg/mL
same,"IC25, positive chronotropic effect with isoprenaline",[2],0.861 µg/mL
same,"IC25, positive inotropic effect with isoprenaline",[2],0.741 µg/mL
same,LD50,[3],83 mg/kg
CC(C)NCC(O)COc1ccc2c(c1)NC(=O)CS2 (stereo not drawn) [VII],change in vivo at 0.025 mg/kg,guinea pig,24.1%
same,"IC50, antagonism in the response of the isolated guinea pig trachea to isoprenaline",[1],0.43 µg/mL
same,"IC25, positive chronotropic effect with isoprenaline",[2],0.415 µg/mL
same,"IC25, positive inotropic effect with isoprenaline",[2],0.346 µg/mL
same,LD50,[3],80 mg/kg
"CC(C)(C)NCC(O)COc1cccc2c1CCC(=O)N2 (stereo not drawn) [Carteolol, 5-(3-tert.butylamino-2-hydroxy-propoxy)-3,4-dihydro-carbostyryl-hydrochloride, reference compound]","IC25, positive chronotropic effect with isoprenaline",[2],0.00905 µg/mL
same,"IC25, positive inotropic effect with isoprenaline",[2],0.00173 µg/mL
same,LD50,[3],50 mg/kg
CC(C)CNCC(O)COc1ccc2c(c1)SCC(=O)N2 (stereo not drawn) [Compound XII],change in vivo at 0.02 mg/kg,guinea pig,16.4%
same,"IC50, antagonism in the response of the isolated guinea pig trachea to isoprenaline",[1],0.806 µg/mL
same,"IC25, positive chronotropic effect with isoprenaline",[2],0.55 µg/mL
same,"IC25, positive inotropic effect with isoprenaline",[2],0.361 µg/mL
same,LD50,[3],82 mg/kg
